From patent publication US9328093B2, “Selective inhibitors of ubiquitin specific protease 7, the pharmaceutical compositions thereof and their therapeutic applications” (HYBRIGENICS SA, priority 2010, dated 2016)
pIC50: −log10 of the molar value.

Assays:
[1] = test system: HCT116 colon cancer cells; assay: HCT116 cell viability and proliferation assay (MTS); format: cell-based; details: Homo sapiens, HCT-116, 72 h, HCT116, 72 hours, read-out: Cell viability (MTS): HCT116 GI50 Day3
How it was run: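 HCT116 cells (10^3/well) treated in triplicate 24 h after seeding with 50 nM–100 μM compound, 0.5% final DMSO, for 72 h at 37 °C. Viability by MTS (2 h), absorbance 492 nm; GI50 from sigmoidal variable-slope fit, mean of three independent experiments.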

[2] = biological target: T1, USP8 (Homo sapiens, UniProt P40818); assay: USP8 activity assay (Ub-AMC substrate); format: biochemical; details: Ub-AMC 300 nM, USP8 1.36 nM
T1 construct: His (from pFastBac-HT vector) (N); made in house; host or cells: Sf9 or High Five insect cells, baculovirus
T1 sequence (P40818 1-1118): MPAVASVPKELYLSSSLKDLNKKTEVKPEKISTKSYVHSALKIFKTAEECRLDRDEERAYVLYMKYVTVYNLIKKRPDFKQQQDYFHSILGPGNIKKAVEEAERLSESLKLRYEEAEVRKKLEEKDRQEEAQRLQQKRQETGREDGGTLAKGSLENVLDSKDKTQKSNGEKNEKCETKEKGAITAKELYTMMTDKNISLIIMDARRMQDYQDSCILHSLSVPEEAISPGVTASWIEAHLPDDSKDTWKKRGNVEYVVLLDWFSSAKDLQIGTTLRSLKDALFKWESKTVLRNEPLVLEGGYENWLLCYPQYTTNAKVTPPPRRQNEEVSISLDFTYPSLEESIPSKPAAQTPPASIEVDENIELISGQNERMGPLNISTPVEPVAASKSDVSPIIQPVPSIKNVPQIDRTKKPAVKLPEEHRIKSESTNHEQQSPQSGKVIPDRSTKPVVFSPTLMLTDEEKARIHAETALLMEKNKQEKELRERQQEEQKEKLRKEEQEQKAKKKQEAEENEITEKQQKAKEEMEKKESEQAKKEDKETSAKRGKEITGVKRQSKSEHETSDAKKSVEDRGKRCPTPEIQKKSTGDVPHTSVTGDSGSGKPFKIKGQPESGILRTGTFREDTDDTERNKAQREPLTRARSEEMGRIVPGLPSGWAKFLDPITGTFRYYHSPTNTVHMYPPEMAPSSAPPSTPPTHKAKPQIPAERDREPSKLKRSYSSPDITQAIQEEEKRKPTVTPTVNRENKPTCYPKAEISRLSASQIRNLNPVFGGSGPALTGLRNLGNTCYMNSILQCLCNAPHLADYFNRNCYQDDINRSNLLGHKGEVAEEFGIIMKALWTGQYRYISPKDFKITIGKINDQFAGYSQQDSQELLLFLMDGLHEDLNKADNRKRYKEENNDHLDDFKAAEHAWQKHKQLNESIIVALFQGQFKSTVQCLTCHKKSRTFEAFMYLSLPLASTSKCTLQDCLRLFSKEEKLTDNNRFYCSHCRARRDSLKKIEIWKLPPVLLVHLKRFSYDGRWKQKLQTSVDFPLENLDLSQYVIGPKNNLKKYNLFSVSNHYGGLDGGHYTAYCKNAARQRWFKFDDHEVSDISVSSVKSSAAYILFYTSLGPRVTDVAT
Text: The cDNA encoding USP8 was obtained by PCR amplification from placenta mRNA. USP8 cDNA was subcloned by PCR into a baculovirus expression vector (pFastBac-HT; Invitrogen). A cDNA encoding a mutated USP8 was generated by mutagenic PCR. The corresponding protein encodes a cysteine to alanine substitution at residue 786. The sequences were ascertained by sequencing of the entire open reading frame. Bacmids encoding USP8 were generated following DH10bac transposition. The corresponding bacmids were transfected into insect cells (Sf9). Viruses were recovered from culture supernatant and amplified twice. Insect cells (Sf9 or High Five; Invitrogen) were infected for 72 hours. Total cell lysates were harvested and lyzed in lysis buffer (Tris HCl 50 mM pH7.6; 0.75% NP40; 500 mM NaCl; 10% glycerol; 1 mM DTT; 10 mM imidazole; Protease Inhibitor Cocktail; AEBSF 20 μg·ml^−1; Aprotinin 10 μg·ml^−1). Proteins were affinity purified on metal affinity resins (Talon Metal affinity resin; BD Biosciences). Bound materials were extensively washed in wash buffer (50 mM Sodium Phosphate pH 7.0; 300 mM NaCl; 10 mM imidazole; 0.5% Triton X-100; 10% glycerol) and eluted from the resin in 250 mM imidazole-containing wash buffer. Proteins were dialyzed in dialysis buffer (Tris HCl pH 7.6 20 mM; NaCl 200 mM; DTT 1 mM; EDTA 1 mM; 10% Glycerol). Proteins purifications were analyzed on 4-12% NuPAGE (Invitrogen).
USP8 was diluted in USP buffer (50 mM Tris HCl; 0.5 mM EDTA; 5 mM DTT; 0.01% Triton X-100; Bovine Serum Albumin 0.05 mg·ml^−1 pH8.8). Compounds stocks (100 mM) were stored at −20° C. in DMSO. Compounds were tested at different concentrations: from 200 μM to 91 nM.
Reactions were performed as duplicates in Black 384 well plates (small volume microplates; Greiner; 10 μl final reaction volume). The substrate concentration for USP8 was 300 nM Ub-AMC (Boston Biochem). The concentration of the enzyme (USP8) in specificity assays was 1.36 nM. The concentrations were determined in order to perform specificity assays under initial velocities at fixed substrate concentration. Compounds were pre-incubated with enzymes for 30 minutes at 25° C. Reactions were initiated by addition of substrate to the plates containing the enzymes (+/− compounds) diluted in assay buffer. Reactions were incubated for 60 minutes at 37° C. Reactions were stopped by adding acetic acid (100 mM final). Readings were performed on a Pherastar Fluorescent Reader (BMG). λ Emission 380 nm: λ Excitation=460 nm. Data (mean values +/− standard deviation) were analyzed as % of control (no compound) and plotted as percentage versus the Log of the compound concentration using GraphPad (Prism). Data were fitted to a sigmoidal model (variable slope).

Compound	GI50 [1]	pIC50 [2]
CN1CCCC1CCNC(=O)c1ccc2c(Cl)c3c(nc2c1)CCCC3 (stereo not drawn) [Example 17, 9-chloro-N-(2-(1-methylpyrrolidin-2-yl)ethyl)-5,6,7,8-tetrahydroacridino-3-carboxamide]	6.9 µM	< 3.70
O=C(NCc1cccc(CN2CCCC2)c1)c1ccc2c(Cl)c3c(nc2c1)CCCC3 [Example 18, 9-chloro-N-(3-(pyrrolidin-1-ylmethyl)benzyl)-5,6,7,8-tetrahydroacridine-3-carboxamide]	4.3 µM	< 3.70
O=C(NCC1CCNCC1)c1ccc2c(Cl)c3c(nc2c1)CCCC3 [Example 24, 9-chloro-N-((piperidin-4-yl)methyl)-5,6,7,8-tetrahydroacridine-3-carboxamide]	8.3 µM	~3.70
O=C(NCC(CN1CCCC1)C(O)c1ccccc1)c1ccc2c(Cl)c3c(nc2c1)CCCC3 (stereo not drawn) [Example 25, 9-chloro-N-(3-hydroxy-3-phenyl-2-pyrrolidin-1-ylmethylpropyl)-5,6,7,8-tetrahydroacridine-3-carboxamide]	5.6 µM	< 3.70

Continued, values first:

GI50 [1]	pIC50 [2]	Compound
4.1 µM	< 3.70	O=C(Nc1cccc(CN2CCCC2)c1)c1ccc2c(Cl)c3c(nc2c1)CCCC3 [Example 19, 9-chloro-N-(3-(pyrrolidin-1-ylmethyl)phenyl)-5.6,7,8-tetrahydroacridine-3-carboxamide]
8.4 µM	< 3.70	CC1CCCCN1CCCNC(=O)c1ccc2c(Cl)c3c(nc2c1)CCCC3 (stereo not drawn) [Example 20, 9-chloro-N-(3-(2-methylpiperidin-1-yl)propyl)-516,7,8-tetrahydroacridine-3-carboxamide]
3.5 µM	< 3.70	O=C(NCc1ccc(CN2CCCC2)cc1)c1ccc2c(Cl)c3c(nc2c1)CCCC3 [Example 21, 9-chloro-N-(4-(pyrrolidin-1-ylmethyl)benzyl)-5,6,7,8-tetrahydroacridine-3-carboxamide]
3.3 µM	< 3.70	COc1ccc(CN2CCC(CNC(=O)c3ccc4c(Cl)c5c(nc4c3)CCCC5)CC2)cc1 [Example 22, 9-chloro-N-((1-(4-methoxybenzyl)piperidin-4-yl)methyl)-5,6,7,8-tetrahydroacridine-3-carboxamide]
1.8 µM	< 3.70	CN(C)c1ccc(CN2CCC(CNC(=O)c3ccc4c(Cl)c5c(nc4c3)CCCC5)CC2)cc1 [Example 23]
